Test system: bacteria isolated from a industrial cooling water sample
Assay: Time-kill test in cooling water samples (MPN serial dilution)
Type: cell-based
Conditions: 37° C., start about 5×10^7 CFU/ml
Experimental: In this example, tributyl tetradecyl phosphonium chloride (TTPC), tetrakis(hydroxymethyl)phosphonium sulfate (THPS), and combinations of TTPC and THPS are tested at different concentrations for efficacy against bacteria isolated from a industrial cooling water sample. Water samples containing a final bacterial concentration of about 5×10^7 CFU/ml are used. Biocide solutions are prepared and diluted in sterile deionized water and used within 2 hours.
Time-kill tests are carried out to determine the threshold concentrations required for biocide activity in the cooling water samples. Tests are conducted in a 96-deep well block format using a total sample volume of 600 μl for all evaluations. In these samples, no more than 10% of the total volume consists of the biocide and organism solution and all non-matrix additions are normalized for all samples. Each experimental 96-well block contains biocide-treated samples and control samples which lack biocide. The biocides are added to the bacterial suspension at various concentrations and mixed well. The mixture samples are then incubated at 37° C. At several time intervals starting from 1 hour, viable bacteria left in the mixture are determined using the MPN method of serial dilution.
Synergy Index (SI) is calculated as shown below. An SI value of less than 1 indicates synergy.
Ca: Concentration of biocide A required to achieve bacterial concentrations of 2×10^3 CFU/ml or less when used in combination
CA: Concentration of biocide A required to achieve bacterial concentrations of 2×10^3 CFU/ml or less when used alone
Cb: Concentration of biocide B required to achieve bacterial concentrations of 2×10^3 CFU/ml or less when used in combination
CB: Concentration of biocide B required to achieve bacterial concentrations of 2×10^3 CFU/ml or less when used alone

| Compound | Concentration of active needed to achieve bacterial concentrations of 2×10^3 CFU/ml or less, biocide used alone (4 hr) | Concentration of active needed to achieve bacterial concentrations of 2×10^3 CFU/ml or less, biocide used alone (24 hr) | Concentration of active needed to achieve bacterial concentrations of 2×10^3 CFU/ml or less, biocide used alone (48 hr) | Concentration of active needed to achieve bacterial concentrations of 2×10^3 CFU/ml or less, biocide used alone (3 day) | Concentration of active needed to achieve bacterial concentrations of 2×10^3 CFU/ml or less, biocide used alone (5 day) | Concentration of active needed to achieve bacterial concentrations of 2×10^3 CFU/ml or less, biocide used alone (7 day) |
| --- | --- | --- | --- | --- | --- | --- |
| CCCCCCCCCCCCCC[P+](CCCC)(CCCC)CCCC.[Cl-] [TTPC, tributyl tetradecyl phosphonium chloride] | 30 ppm | 40 ppm | 40 ppm | 40 ppm | 40 ppm | 40 ppm |
| tetrakis(hydroxymethyl)phosphonium sulfate [THPS] | 100 ppm | 75 ppm | 75 ppm | 75 ppm | 75 ppm | 75 ppm |

Reference: patent US20150018317A1, “BIOCIDAL COMPOSITION” (Dow Global Technologies LLC, priority 2010, published 2015)
